The results in this text go back to ChEMBL document CHEMBL3217597, “OH radical production stimulated by (RW)4D, a synthetic antimicrobial agent and indolicidin” (Medchemcomm, 2012).

Structures are written as SMILES. ≈ marks a conversion by molar mass, not a printed value. Calls of active or inactive are those of the source. The calls are words filed in the database; no cut-off is given here. Where a SMILES comes first, the peptide text is derived from it. Side-chain parts run from the residue outwards. [ ]: non-standard residue; d: D form. The star is where a group is joined. Lys(α,ε-(ArgTrp)2) = N=C(N)NCCC[C@H](N)C(=O)N[C@@H](Cc1c[nH]c2ccccc12)C(=O)NCCCC[C@H](NC(=O)[C@H](Cc1c[nH]c2ccccc12)NC(=O)[C@@H](N)CCCNC(=N)N)C(=O)*; βAla = NCCC(=O)O

The subject of test [1] is Escherichia coli. In words: Induction of hydroxyl radical production in Escherichia coli at 25 to 250 ng/mL after 1 hr by measuring increase in hydroxyphenyl fluorescein emission by flow cytometry analysis. The format is functional, organism-based.
The test system of test [2] is Escherichia coli. Nature of the test: Induction of hydroxyl radical production in Escherichia coli at 25 to 250 ng/mL after 2 hrs by measuring increase in hydroxyphenyl fluorescein emission by flow cytometry analysis. In kind it is functional, organism-based. Background: Flow cytometry measures light scatter and fluorescence of single cells or particles in a stream.

Test [3] has as its system Escherichia coli. Nature of the test: Reduction of hydroxyl radical production in deltamdh knockout Escherichia coli at 25 to 250 ng/ml after 1 hr by flow cytometry analysis. The format is functional, organism-based.
Test [4] relates to Escherichia coli. In words: Reduction of hydroxyl radical production in deltaicdA knockout Escherichia coli at 25 to 250 ng/ml after 1 hr by flow cytometry analysis. In kind it is functional, organism-based.
The subject of test [5] is Escherichia coli. Nature of the test: Induction of hydroxyl radical production in Escherichia coli at 25 to 250 ng/mL after 1 hr by measuring increase in hydroxyphenyl fluorescein emission by flow cytometry analysis in presence of thiourea. The format is functional, organism-based.
For test [6], the system named is Escherichia coli. Nature of the test: Reduction of hydroxyl radical production in […] knockout Escherichia coli at 25 to 250 ng/ml after 1 hr by flow cytometry analysis. The format is functional, organism-based.
Test [7] concerns Escherichia coli. Nature of the test: Induction of hydroxyl radical production in deltaiscS knockout Escherichia coli at 25 to 250 ng/mL after 1 hr by measuring increase in hydroxyphenyl fluorescein emission by flow cytometry analysis. The format is functional, organism-based.
Test [8] relates to Escherichia coli. In words: Reduction of hydroxyl radical production in deltaacnB knockout Escherichia coli at 25 to 250 ng/ml after 1 hr by flow cytometry analysis. In kind it is functional, organism-based.
In test [9] the test system is Escherichia coli. In words: Ratio of IC50 for deltaicdA knockout Escherichia coli to IC50 for Escherichia coli […]. In kind it is functional.
In test [10] the test system is Escherichia coli. Nature of the test: Reduction of hydroxyl radical production in deltaacnB knockout Escherichia coli at 9 ug/ml after 1 hr by flow cytometry analysis. In kind it is functional, organism-based.
In test [11] the test system is Escherichia coli. In words: Induction of hydroxyl radical production in Escherichia coli at 9 to 45 ug/mL after 1 hr by measuring increase in hydroxyphenyl fluorescein emission by flow cytometry analysis in presence of thiourea. In kind it is functional, organism-based.
Test [12] has as its system Escherichia coli. In words: Ratio of IC50 for deltaiscS knockout Escherichia coli to IC50 for Escherichia coli […]. In kind it is functional.
In test [13] the test system is Escherichia coli. In words: Reduction of hydroxyl radical production in deltamdh knockout Escherichia coli at 9 to 45 ug/mL after 1 hr by flow cytometry analysis. The format is functional, organism-based.
For test [14], the system named is Escherichia coli. Nature of the test: Induction of hydroxyl radical production in deltaiscS knockout Escherichia coli at 9 to 45 ug/mL after 1 hr by measuring increase in hydroxyphenyl fluorescein emission by flow cytometry analysis. In kind it is functional, organism-based.
For test [15], the system named is Escherichia coli. Nature of the test: Antibacterial activity against deltaacnB knockout Escherichia coli. In kind it is functional, organism-based.
Test [16] relates to Escherichia coli. In words: Antibacterial activity against deltamdh knockout Escherichia coli. The format is functional, organism-based.
Test [17] deals with Escherichia coli. Nature of the test: Induction of hydroxyl radical production in Escherichia coli at 9 to 45 ug/mL after 2 hrs by measuring increase in hydroxyphenyl fluorescein emission by flow cytometry analysis. The format is functional, organism-based.
In test [18] the test system is Escherichia coli. Nature of the test: Induction of hydroxyl radical production in Escherichia coli at 9 to 45 ug/mL after 1 hr by measuring increase in hydroxyphenyl fluorescein emission by flow cytometry analysis. The format is functional, organism-based.
Test [19] concerns Escherichia coli. In words: Reduction of hydroxyl radical production in […] knockout Escherichia coli at 9 to 45 ug/mL after 1 hr by flow cytometry analysis. The format is functional, organism-based.
The test system of test [20] is Escherichia coli. In words: Reduction of hydroxyl radical production in deltaicdA knockout Escherichia coli at 9 to 45 ug/mL after 1 hr by flow cytometry analysis. The format is functional, organism-based.
Test [21] relates to Escherichia coli. In words: Antibacterial activity against Escherichia coli […]. The format is functional, organism-based.
Test [22] concerns Escherichia coli. Nature of the test: Ratio of IC50 for deltaacnB knockout Escherichia coli to IC50 for Escherichia coli […]. The format is functional.
The subject of test [23] is Escherichia coli. In words: Antibacterial activity against […] knockout Escherichia coli. The format is functional, organism-based.
Test [24] relates to Escherichia coli. Nature of the test: Antibacterial activity against deltaicdA knockout Escherichia coli. The format is functional, organism-based.
Test [25] has as its system Escherichia coli. In words: Antibacterial activity against deltaiscS knockout Escherichia coli. The format is functional, organism-based.
In test [26] the test system is Escherichia coli. In words: Induction of hydroxyl radical production in deltaiscS knockout Escherichia coli at 5 to 25 ug/mL after 1 hr by measuring increase in hydroxyphenyl fluorescein emission by flow cytometry analysis. The format is functional, organism-based.
Test [27] relates to Escherichia coli. In words: Reduction of hydroxyl radical production in deltaicdA knockout Escherichia coli at 5 to 25 ug/ml after 1 hr by flow cytometry analysis. The format is functional, organism-based.
Test [28] has as its system Escherichia coli. Nature of the test: Reduction of hydroxyl radical production in […] knockout Escherichia coli at 5 to 25 ug/ml after 1 hr by flow cytometry analysis. The format is functional, organism-based.
The test system of test [29] is Escherichia coli. In words: Induction of hydroxyl radical production in Escherichia coli at 5 to 25 ug/mL after 1 hr by measuring increase in hydroxyphenyl fluorescein emission by flow cytometry analysis. In kind it is functional, organism-based.
For test [30], the system named is Escherichia coli. In words: Reduction of hydroxyl radical production in deltaacnB knockout Escherichia coli at 5 to 25 ug/ml after 1 hr by flow cytometry analysis. In kind it is functional, organism-based.
In test [31] the test system is Escherichia coli. In words: Induction of hydroxyl radical production in Escherichia coli at 5 to 25 ug/mL after 2 hrs by measuring increase in hydroxyphenyl fluorescein emission by flow cytometry analysis. In kind it is functional, organism-based.
Test [32] relates to Escherichia coli. Nature of the test: Reduction of hydroxyl radical production in deltamdh knockout Escherichia coli at 5 to 25 ug/ml after 1 hr by flow cytometry analysis. The format is functional, organism-based.
For test [33], the system named is Escherichia coli. Nature of the test: Induction of hydroxyl radical production in Escherichia coli at 5 to 25 ug/mL after 1 hr by measuring increase in hydroxyphenyl fluorescein emission by flow cytometry analysis in presence of thiourea. The format is functional, organism-based.
The subject of test [34] is Escherichia coli. Nature of the test: Induction of hydroxyl radical production in Escherichia coli at 5 to 15 ug/mL after 1 hr by measuring increase in hydroxyphenyl fluorescein emission by flow cytometry analysis in presence of thiourea. The format is functional, organism-based.
In test [35] the test system is Escherichia coli. In words: Induction of hydroxyl radical production in Escherichia coli at 5 to 15 ug/mL after 1 hr by measuring increase in hydroxyphenyl fluorescein emission by flow cytometry analysis. The format is functional, organism-based.
The test system of test [36] is Escherichia coli. In words: Induction of hydroxyl radical production in Escherichia coli at 5 to 15 ug/mL after 2 hrs by measuring increase in hydroxyphenyl fluorescein emission by flow cytometry analysis. In kind it is functional, organism-based.
The subject of test [37] is Escherichia coli. In words: Reduction of hydroxyl radical production in deltamdh knockout Escherichia coli at 5 to 15 ug/ml after 1 hr by flow cytometry analysis. The format is functional, organism-based.
Test [38] deals with Escherichia coli. Nature of the test: Reduction of hydroxyl radical production in […] knockout Escherichia coli at 5 to 15 ug/ml after 1 hr by flow cytometry analysis. In kind it is functional, organism-based.
The test system of test [39] is Escherichia coli. Nature of the test: Reduction of hydroxyl radical production in deltaacnB knockout Escherichia coli at 5 to 15 ug/ml after 1 hr by flow cytometry analysis. The format is functional, organism-based.
Test [40] deals with Escherichia coli. In words: Reduction of hydroxyl radical production in deltaicdA knockout Escherichia coli at 5 to 15 ug/ml after 1 hr by flow cytometry analysis. The format is functional, organism-based.
Test [41] relates to Escherichia coli. Nature of the test: Induction of hydroxyl radical production in deltaiscS knockout Escherichia coli at 5 to 15 ug/mL after 1 hr by measuring increase in hydroxyphenyl fluorescein emission by flow cytometry analysis. In kind it is functional, organism-based.

As for `CCn1cc(C(=O)O)c(=O)c2cc(F)c(N3CCNCC3)cc21`, the outcome in the test with Escherichia coli [1], in the test with Escherichia coli [2] and in the test with Escherichia coli [8] was Active. The result with Escherichia coli [3], in the test with Escherichia coli [4], in the test on Escherichia coli [5], in the test on Escherichia coli [6] and in the test on Escherichia coli [7] was inactive.

By IC50 is commonly meant the concentration that inhibits the measured activity by half. Take `N=C(N)NCCC[C@H](N)C(=O)N[C@@H](Cc1c[nH]c2ccccc12)C(=O)NCCCC[C@H](NC(=O)[C@H](Cc1c[nH]c2ccccc12)NC(=O)[C@@H](N)CCCNC(=N)N)C(=O)NCCCC[C@H](NC(=O)[C@H](CCCCNC(=O)[C@H](Cc1c[nH]c2ccccc12)NC(=O)[C@@H](N)CCCNC(=N)N)NC(=O)[C@H](Cc1c[nH]c2ccccc12)NC(=O)[C@@H](N)CCCNC(=N)N)C(=O)NCCC(N)=O` (H-RWK([Trp-Arg])K(Lys(α,ε-(ArgTrp)2))[βAla]-NH2): the “Ratio IC50” value in the test on Escherichia coli [9], in the test with Escherichia coli [12] and in the test with Escherichia coli [22] was 1.5 in each case. For the same molecule, the outcome with Escherichia coli [10], in the test with Escherichia coli [17] and in the test with Escherichia coli [18] was Active. Besides, the result in the test with Escherichia coli [11], in the test with Escherichia coli [13], in the test with Escherichia coli [14], in the test with Escherichia coli [19] and in the test with Escherichia coli [20] was inactive. Besides, the half-maximal inhibitory concentration (IC50) came to 9.7 µg/mL (≈ 5.27 µM) in the test on Escherichia coli [15]; 7.8 µg/mL (≈ 4.23 µM) in the test on Escherichia coli [16]; 6.5 µg/mL (≈ 3.53 µM) with Escherichia coli [21]; 8.3 µg/mL (≈ 4.51 µM) in the test with Escherichia coli [23]; 9.4 µg/mL (≈ 5.1 µM) in the test with Escherichia coli [24]; 9.9 µg/mL (≈ 5.37 µM) in the test on Escherichia coli [25].

`NC[C@H]1O[C@H](O[C@H]2[C@H](O)[C@@H](O[C@H]3O[C@H](CO)[C@@H](O)[C@H](N)[C@H]3O)[C@H](N)C[C@@H]2N)[C@H](O)[C@@H](O)[C@@H]1O`: the result in the test with Escherichia coli [26], with Escherichia coli [27], in the test on Escherichia coli [28], in the test with Escherichia coli [32] and in the test with Escherichia coli [33] was inactive. Besides, the outcome with Escherichia coli [29], with Escherichia coli [30] and with Escherichia coli [31] was Active.

Regarding `CC1(C)S[C@@H]2[C@H](NC(=O)[C@H](N)c3ccccc3)C(=O)N2[C@H]1C(=O)O`, the outcome with Escherichia coli [34], in the test with Escherichia coli [37], in the test on Escherichia coli [38], in the test on Escherichia coli [40] and in the test with Escherichia coli [41] was inactive. The result in the test on Escherichia coli [35], in the test on Escherichia coli [36] and in the test with Escherichia coli [39] was Active.
